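The compound was tested at five concentrations on cells cultured in 96-well plates, with a 48-hour exposure period. GI50 is the concentration that inhibits growth by half.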 The source made the active and inactive calls. No stated cut-off is given here; in the data, active = GI50 up to about 1.1 µM and inactive = higher.
Assays:
Test in all cases: DTP human tumour cell line panel, 48 h
DU-145 = tested on: DU-145
RXF 393 = tested on: RXF 393
HCT-116 = tested on: HCT-116
MDA-MB-231 = tested on: MDA-MB-231
K562 = tested on: K562
BT-549 = tested on: BT-549
HCT-15 = tested on: HCT-15
HT-29 = tested on: HT-29
M14 = tested on: M14
T47D = tested on: T47D
NCI-H226 = tested on: NCI-H226
SK-OV-3 = tested on: SK-OV-3
MOLT-4 = tested on: MOLT-4
Hs-578T = tested on: Hs-578T
SNB-19 = tested on: SNB-19
SN12C = tested on: SN12C
SK-MEL-28 = tested on: SK-MEL-28
U-251 = tested on: U-251
786-0 = tested on: 786-0
NCI-H460 = tested on: NCI-H460

Structure (SMILES)	GI50 (DU-145)	GI50 (RXF 393)	GI50 (HCT-116)	GI50 (MDA-MB-231)	GI50 (K562)	GI50 (BT-549)	GI50 (HCT-15) [µM]	GI50 (HT-29)	GI50 (M14)	GI50 (T47D)	GI50 (NCI-H226)	GI50 (SK-OV-3)	GI50 (MOLT-4)	GI50 (Hs-578T)	GI50 (SNB-19)	GI50 (SN12C)	GI50 (SK-MEL-28)	GI50 (U-251)	GI50 (786-0)	GI50 (NCI-H460)
C=C1CC[C@@H]2[C@](C)(COC(=O)CCC(=O)O)CCC[C@@]2(C)[C@@H]1CCC1=CC(=O)OC1	5.97 µM (inactive)	> 100 µM (inactive)	> 100 µM (inactive)	> 100 µM (inactive)	> 100 µM (inactive)	> 100 µM (inactive)	> 100	> 100 µM (inactive)	> 100 µM (inactive)	> 100 µM (inactive)	> 100 µM (inactive)	> 100 µM (inactive)	> 100 µM (inactive)	> 100 µM (inactive)	> 100 µM (inactive)	> 100 µM (inactive)	> 100 µM (inactive)	> 100 µM (inactive)	> 100 µM (inactive)	–
CCOC(=O)C1CCCc2sc(N)c(C#N)c21 (stereo not given)	–	> 100 µM (inactive)	> 100 µM (inactive)	> 100 µM (inactive)	> 100 µM (inactive)	55.5 µM (inactive)	> 100	> 100 µM (inactive)	> 100 µM (inactive)	> 100 µM (inactive)	> 100 µM (inactive)	–	> 100 µM (inactive)	> 100 µM (inactive)	> 100 µM (inactive)	> 100 µM (inactive)	> 100 µM (inactive)	> 100 µM (inactive)	> 100 µM (inactive)	> 100 µM (inactive)
C/N=C1\OC2=C3C(c4ccccc4)(O/C(=N/C)N(C)C3(c3ccccc3)OC2=O)N1C (stereo not given)	> 100 µM (inactive)	–	> 100 µM (inactive)	> 100 µM (inactive)	> 100 µM (inactive)	> 100 µM (inactive)	> 100	> 100 µM (inactive)	> 100 µM (inactive)	> 100 µM (inactive)	> 100 µM (inactive)	> 100 µM (inactive)	> 100 µM (inactive)	> 100 µM (inactive)	> 100 µM (inactive)	> 100 µM (inactive)	> 100 µM (inactive)	> 100 µM (inactive)	> 100 µM (inactive)	> 100 µM (inactive)
O=C1NC2(CCCCC2)C(=O)N1CCN(CCCl)CCCl [SPIROMUSTINE]	> 25 µM (inactive)	–	190 µM (inactive)	> 25 µM (inactive)	214 µM (inactive)	> 25 µM (inactive)	–	> 250 µM (inactive)	> 25 µM (inactive)	23.9 µM (inactive)	> 250 µM (inactive)	171 µM (inactive)	34.2 µM (inactive)	> 25 µM (inactive)	187 µM (inactive)	112 µM (inactive)	97.5 µM (inactive)	182 µM (inactive)	> 25 µM (inactive)	61.5 µM (inactive)
COc1ccc(-c2sc(Br)c3c2C(=O)C2OC(=O)NC32)cc1OC (stereo not given)	> 100 µM (inactive)	> 100 µM (inactive)	> 100 µM (inactive)	> 100 µM (inactive)	> 100 µM (inactive)	> 100 µM (inactive)	> 100	> 100 µM (inactive)	> 100 µM (inactive)	> 100 µM (inactive)	> 100 µM (inactive)	> 100 µM (inactive)	> 100 µM (inactive)	> 100 µM (inactive)	> 100 µM (inactive)	> 100 µM (inactive)	–	> 100 µM (inactive)	> 100 µM (inactive)	> 100 µM (inactive)
Cc1cc(SCC(=O)c2ccccc2)nc2ccccc12	> 100 µM (inactive)	> 100 µM (inactive)	> 100 µM (inactive)	> 100 µM (inactive)	> 100 µM (inactive)	> 100 µM (inactive)	> 100	40.1 µM (inactive)	92.3 µM (inactive)	> 100 µM (inactive)	> 100 µM (inactive)	–	> 100 µM (inactive)	< 0.01 µM (active)	> 100 µM (inactive)	> 100 µM (inactive)	> 100 µM (inactive)	> 100 µM (inactive)	> 100 µM (inactive)	> 100 µM (inactive)
C=C1CC(C)(COc2ccc3c(C)c(Cl)c(=O)oc3c2)OC1=O (stereo not given)	2.4 µM (inactive)	–	0.408 µM (active)	3.53 µM (inactive)	0.518 µM (active)	1.31 µM (inactive)	2.03	0.984 µM (active)	1.26 µM (inactive)	0.361 µM (active)	2.83 µM (inactive)	4.88 µM (inactive)	1.05 µM (active)	3.11 µM (inactive)	12.9 µM (inactive)	5.07 µM (inactive)	2.42 µM (inactive)	7.82 µM (inactive)	1.35 µM (inactive)	6.97 µM (inactive)
C=C(C)C(=O)O[C@H]1C/C(CO)=C/CCC(=C)C(OC(C)=O)[C@H]2OC(=O)C(=C)[C@H]12 (stereo not given in full)	17 µM (inactive)	–	3.78 µM (inactive)	11.1 µM (inactive)	2.44 µM (inactive)	4.41 µM (inactive)	2.3	5.86 µM (inactive)	3.49 µM (inactive)	6.95 µM (inactive)	40.8 µM (inactive)	44.9 µM (inactive)	1.96 µM (inactive)	12.2 µM (inactive)	28.7 µM (inactive)	13.4 µM (inactive)	7.76 µM (inactive)	17.8 µM (inactive)	3.79 µM (inactive)	17.1 µM (inactive)
COc1ccc(OC)c2sc(N3C(=O)/C(=C/Cc4ccco4)N=C3c3ccccc3)nc12	32.4 µM (inactive)	–	27.3 µM (inactive)	> 100 µM (inactive)	29.9 µM (inactive)	50.2 µM (inactive)	42.7	44 µM (inactive)	37.6 µM (inactive)	26 µM (inactive)	–	83.4 µM (inactive)	17.9 µM (inactive)	42.2 µM (inactive)	47.3 µM (inactive)	33.3 µM (inactive)	79.1 µM (inactive)	22.5 µM (inactive)	35.5 µM (inactive)	50.1 µM (inactive)
CN1CCN(C(=S)N(C(=O)c2ccco2)C2CCCCC2)CC1	> 100 µM (inactive)	> 100 µM (inactive)	–	> 100 µM (inactive)	> 100 µM (inactive)	> 100 µM (inactive)	> 100	> 100 µM (inactive)	> 100 µM (inactive)	> 100 µM (inactive)	> 100 µM (inactive)	–	> 10 µM (inactive)	> 100 µM (inactive)	> 100 µM (inactive)	> 100 µM (inactive)	> 100 µM (inactive)	> 100 µM (inactive)	> 100 µM (inactive)	> 100 µM (inactive)
CCN(CC(O)COc1ccc2c(c1)[n+]([O-])nc(N)[n+]2[O-])C(C)=O (stereo not given)	> 100 µM (inactive)	–	97.9 µM (inactive)	> 100 µM (inactive)	79.6 µM (inactive)	> 100 µM (inactive)	> 100	> 100 µM (inactive)	> 100 µM (inactive)	20.2 µM (inactive)	> 100 µM (inactive)	> 100 µM (inactive)	39 µM (inactive)	63 µM (inactive)	> 100 µM (inactive)	> 100 µM (inactive)	> 100 µM (inactive)	> 100 µM (inactive)	> 100 µM (inactive)	> 100 µM (inactive)
Cc1cc(O)c2c(c1)C(=O)C=C(Br)C2=O	12.4 µM (inactive)	–	16.6 µM (inactive)	16.9 µM (inactive)	0.807 µM (active)	16.9 µM (inactive)	10.2	21.1 µM (inactive)	15.8 µM (inactive)	5.68 µM (inactive)	19.2 µM (inactive)	> 100 µM (inactive)	0.52 µM (active)	13 µM (inactive)	> 65.8 µM (inactive)	16.4 µM (inactive)	15.4 µM (inactive)	29.7 µM (inactive)	17.5 µM (inactive)	19.9 µM (inactive)
c1ccc(-c2c(-c3cccs3)[nH]c(-c3cccs3)c2-c2ccccn2)nc1	0.27 µM (active)	20.5 µM (inactive)	0.127 µM (active)	20.3 µM (inactive)	11.7 µM (inactive)	22.2 µM (inactive)	15.1	14.2 µM (inactive)	20.2 µM (inactive)	18.2 µM (inactive)	23 µM (inactive)	21.9 µM (inactive)	11.7 µM (inactive)	33.4 µM (inactive)	33.5 µM (inactive)	21.1 µM (inactive)	–	20.2 µM (inactive)	22.6 µM (inactive)	21.3 µM (inactive)
O=C1NC(Cc2c[nH]c3ccccc23)C(=O)N2C(c3ccccc3)c3[nH]c4ccccc4c3C[C@@H]12 (stereo not given in full)	32.3 µM (inactive)	16 µM (inactive)	15.4 µM (inactive)	20.6 µM (inactive)	21 µM (inactive)	21.1 µM (inactive)	21.7	22.1 µM (inactive)	21.6 µM (inactive)	24.4 µM (inactive)	35.6 µM (inactive)	31.3 µM (inactive)	12.6 µM (inactive)	16.5 µM (inactive)	34.1 µM (inactive)	16.4 µM (inactive)	29.7 µM (inactive)	19.5 µM (inactive)	16.2 µM (inactive)	–
CN1C(=O)C(=CNc2ccccc2Cl)C(=O)N(C)C1=O	–	15.1 µM (inactive)	18 µM (inactive)	> 100 µM (inactive)	22.2 µM (inactive)	> 100 µM (inactive)	17.9	> 100 µM (inactive)	21.9 µM (inactive)	20.1 µM (inactive)	> 100 µM (inactive)	40.8 µM (inactive)	22.6 µM (inactive)	> 100 µM (inactive)	23.8 µM (inactive)	> 100 µM (inactive)	–	> 100 µM (inactive)	18.5 µM (inactive)	15.5 µM (inactive)
